Data published in ChEMBL document CHEMBL1201862, “PubChem BioAssay data set” (2004).
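A five-concentration, 48-hour dose response in 96-well plates underlies each endpoint, interpolated linearly between surrounding concentrations. GI50: concentration for 50% inhibition of growth.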 Active and inactive are the calls of the source. No stated cut-off is given here; in the data, active = GI50 up to about 1.1 µM and inactive = higher.

Experiments:
Assay in all cases: inhibition of tumour cell growth, NCI panel, 48 h
[1] = test system: HCT-116
[2] = test system: SK-MEL-2
[3] = test system: SF-295
[4] = test system: COLO 205
[5] = test system: A549
[6] = test system: DU-145
[7] = test system: HT-29
[8] = test system: OVCAR-5
[9] = test system: EKVX
[10] = test system: BT-549
[11] = test system: MCF7
[12] = test system: SK-MEL-28
[13] = test system: RPMI-8226
[14] = test system: OVCAR-8
[15] = test system: PC-3
[16] = test system: IGROV-1
[17] = test system: SR
[18] = test system: HOP-92
[19] = test system: OVCAR-3
[20] = test system: NCI/ADR-RES

Measured: GI50

N#Cc1c(-c2ccc(Cl)cc2)c2c([nH]c1=O)-c1ccccc1SC2
inactive: [1] 35.4 µM | [2] 52.6 µM | [3] 28 µM | [4] 22.3 µM | [5] 30.3 µM | [6] > 100 µM | [7] 59.7 µM | [8] > 100 µM | [9] 21.1 µM | [10] > 100 µM | [11] 27.5 µM | [12] > 100 µM | [13] 16.7 µM | [14] 57.5 µM | [15] 42.8 µM | [16] 56.9 µM | [17] 29.2 µM | [18] 17.7 µM | [19] 26.2 µM | [20] 29.2 µM

CC(C)C1N(C)c2ccc(Cl)cc2[C@H]2c3ccccc3CCN12 (stereo not given in full)
inactive: [1] 40.2 µM | [2] 25.9 µM | [3] 18.2 µM | [4] 36.4 µM | [5] 39 µM | [6] 53.5 µM | [7] 22.1 µM | [8] 38.3 µM | [9] 28 µM | [10] > 100 µM | [11] 30.7 µM | [12] 54.8 µM | [13] 18.7 µM | [14] > 100 µM | [15] 62.4 µM | [16] 23.4 µM | [17] 29.9 µM | [18] 24.9 µM | [19] 27.2 µM | [20] > 100 µM

O=C(C(=O)n1ccc2ccccc21)c1c[nH]c2ccccc12
inactive: [1] > 10 µM | [2] > 10 µM | [3] > 10 µM | [4] > 10 µM | [5] > 10 µM | [6] > 10 µM | [7] > 10 µM | [8] > 10 µM | [9] > 10 µM | [10] > 10 µM | [11] > 10 µM | [12] > 10 µM | [13] > 10 µM | [14] > 10 µM | [15] > 10 µM | [16] > 10 µM | [17] > 10 µM | [18] > 10 µM | [19] > 10 µM | [20] > 10 µM

N#CC1(O)CCCCCCCCCCC1
inactive: [1] > 100 µM | [2] > 100 µM | [3] > 100 µM | [4] > 100 µM | [5] > 100 µM | [6] > 100 µM | [7] > 100 µM | [8] > 100 µM | [9] > 100 µM | [10] > 100 µM | [11] > 100 µM | [12] > 100 µM | [13] > 100 µM | [14] > 100 µM | [15] > 100 µM | [16] > 100 µM | [17] > 100 µM | [18] > 100 µM | [19] > 100 µM | [20] > 100 µM

CCn1c(SCc2nnc(Nc3ccccc3)s2)nc2ccccc2c1=O
inactive: [1] 1.95 µM | [2] 5.14 µM | [3] 2.52 µM | [4] 16.1 µM | [5] 3.67 µM | [6] 9.1 µM | [7] 2.95 µM | [8] 6.14 µM | [9] 3.56 µM | [10] 5.24 µM | [11] 9.93 µM | [12] 16.4 µM | [13] 5.5 µM | [14] 2.02 µM | [15] 8.79 µM | [16] 3.62 µM | [17] 23.7 µM | [18] 2.57 µM | [19] 5.19 µM | [20] 2.59 µM
